These results are taken from EP4134671A1, “METHYLENE QUINUCLIDINONE COMPANION DIAGNOSTICS” (Deutsches Krebsforschungszentrum Stiftung des öffentlichen …, priority 2021, dated 2023).

One series relates to IMR-32. Briefly: Metabolic activity assay (CellTiter-Glo). It counts as cell-based. The conditions noted are these: for IC50: IMR-32. On the procedure:
(§1) If not otherwise declared, cells were precultured for 72 h at a density of 2,000,000 cells per T75 flask (exceptions: Kelly, NB1 and IMR-32 4,000,000 per T75 flask, SJ-GBM2 1,000,000 per T75 flask). Cells were detached with trypsin-EDTA (ThermoFisher Scientific) and seeded in 96-well plates (Greiner, Microplate, 96-Well, PS, F-bottom µCLEAR®, CELLSTAR®) in 100 µl medium per well at a density of 5,000 (KNS-42, SJ-GBM2, SF188, SK-N-BE(2)-C) or 10,000 (IMR-32, NB1, Kelly) cells/well. HDAC-inhibitor screenings were performed accordingly in 384-well plates (Greiner, Microplate, 384-Well, PS, F-bottom µCLEAR®, CELLSTAR®) in 20 µl medium per well at a density of 1,250 (SK-N-BE(2)-C, SK-N-AS) or 2,500 (IMR-32) cells/well. To avoid edge effects, margin wells (row A and H, column 1 and 12) contained PBS or medium and medium-containing wells were used as background controls. After 24 h incubation, cells were treated for 72 h. Drugs were applied using a Tecan D300e drug printer. Cell viability was quantified using CellTiter-Glo® 2.0 kit (Promega, Madison, USA). 50 µl CellTiter-Glo® (96-well) or 25 µl CellTiter-Glo® (384-well) were added to every well, the plates were shaken at 400 rpm for 5 min and were then incubated for another 10 min. Bioluminescence was quantified on an OPTIMA plate reader (BMG Labtech, Ortenberg, Germany).
(§2) All cell culture experiments were performed in triplicate. A two-tailed t-test, unpaired or paired, or ANOVA where appropriate, were performed using software program R (R version 3.2.2, 2015; The R Foundation for Statistical Computing). The packages tidyverse, janitor, readxl, writxl, ROCR, ggplot2 and ggsignif were used to calculate and plot the data. P-values of less than 0.05 were considered significant (^∗p < 0.05, ^∗∗p < 0.01, ^∗∗∗p < 0.001). IC50 values were calculated using GraphPad Prism Version 9.1.0 (GraphPad Software). Synergistic interactions were analyzed with SynergyFinder using the HSA (highest single agent) reference model, as the assumptions of other models were not fulfilled.

The test system of another series is SK-N-BE(2)-C. Put plainly: Metabolic activity assay (CellTiter-Glo). Type of series: cell-based. As to conditions: for IC50: SK-N-BE(2)-C. On the procedure:
as §1, §2

The next series deals with SK-N-AS. Briefly: Metabolic activity assay (CellTiter-Glo). Type of series: cell-based. On the procedure:
as §1, with “HDAC-inhibitor screenings were performed accordingly in 384-well plates (Greiner, Microplate, 384-Well, PS, F-bottom µCLEAR®, CELLSTAR®) in 20 µl medium per well at a density of 1,250 (SK-N-BE(2)-C, SK-N-AS) or 2,500 (IMR-32) cells/well.” left out
All cell culture experiments were performed in triplicate. […] The packages tidyverse, janitor, readxl, writxl, ROCR, ggplot2 and ggsignif were used to calculate and plot the data. P-values of less than 0.05 were considered significant (^∗p < 0.05, ^∗∗p < 0.01, ^∗∗∗p < 0.001). IC50 values were calculated using GraphPad Prism Version 9.1.0 (GraphPad Software). Synergistic interactions were analyzed with SynergyFinder using the HSA (highest single agent) reference model, as the assumptions of other models were not fulfilled.

The next series deals with SF188. Put plainly: Metabolic activity assay (CellTiter-Glo). As to conditions: doxorubicin combined with APR-246. It counts as cell-based. On the procedure:
as §1, §2
A general note: Cellular ATP, detected with luciferase, serves as a proxy for viable cell number.

For another series, the system named is SJ-GBM2. Put plainly: Metabolic activity assay (CellTiter-Glo). It counts as cell-based. As to conditions: doxorubicin combined with APR-246. On the procedure: as §1, §2
Series [1] concerns p53 target genes CDKN1A, PUMA and GADD45A. Briefly: Real-time PCR of p53 pathway activation in IMR-32. It counts as cell-based. The conditions noted are these: IMR-32 (TP53-wt), doxorubicin single-treatment, 24 h. On the procedure: (§3) Real-time PCR was performed as described previously (Fischer et al., J Mol Diagn 2005, 7, 89-96; Witt et al., Blood 2003, 101, 2001-2007). The following primers were purchased from ThermoFisher Scientific: CDKN1A (p21^WAF1/^CIP1, forward: 5'-TGGAGACTCTCAGGGTCGAAA-3'(SEQ ID NO:1), reverse: 5'-GGCGTTTGGAGTGGTAGAAATC-3'(SEQ ID NO.2)), HPRT (forward: 5'-TGACACTGGCAAAACAATGCA-3'(SEQ ID NO:3), reverse: 5'-GGTCCTTTTCACCAGCAAGCT-3'(SEQ ID NO:4)), SDHA (forward: 5'-TGGGAACAAGAGGGCATCTG-3'(SEQ ID NO:5), reverse: 5'-CCACCACTGCATCAAATTCATG-3'(SEQ ID NO:6)), and PUMA (forward: 5'-CCTGGAGGGTCCTGTACAATCT-3'(SEQ ID NO:7), reverse: 5'-GCACCTAATTGGGCTCCATCT-3'(SEQ ID NO:8)). The primer for GADD45A was purchased from Qiagen, Hilden, Germany (QT00014084). The delta-delta-Ct method was used to calculate the relative expression, and normalization was performed to neuroblastoma specific housekeeping genes SDHA and HPRT (Fischer et al., J Mol Diagn 2005, 7, 89-96).
(Real-time PCR tracks product formation cycle by cycle.)

Series [2] concerns p53 target gene expression. Briefly: Real-time PCR of p53 pathway activation in SK-N-BE(2)-C. It counts as cell-based. The conditions noted are these: SK-N-BE(2)-C (C135F), doxorubicin single treatment, 24 h. On the procedure:
as §3

The test system of a further series is Zebrafish embryo. Briefly: Zebrafish embryo drug toxicity assay. It counts as in vivo. As to conditions: embryos 48 hpf, 34°C, imaged at 72 hpf and 120 hpf; APR-246 range 10-200 µM, Vorinostat range 2.5-100 µM. On the procedure: The toxicity of the compounds was assessed before performing in vivo experiments and a Maximum Tolerated Dose (MTD) was determined. Embryos (48 hpf) were transferred to 48-well uncoated plates (Corning) containing different concentrations of the compounds and a solvent control. The stock solution of the compounds was further dissolved in E3 buffer supplemented with 0.2mM 1-phenyl-2- thiourea (PTU, Sigma) in order to reach the desired concentrations. Three embryos were tested per concentration or solvent control. Embryos were kept at 34°C during the experiment and were imaged at 72 hpf and 120 hpf using a stereo microscope (Leica). The embryos were assessed for signs of toxicity, like death, morphology changes (curvature of body, edema) and behavioral changes. APR-246 concentration range tested: 10-200 µM, MTD: 50µM; solvent control: DMSO (0.2% and 0.5%); Vorinostat concentration range tested: 2.5-100 µM, no toxicity detected (MTD: 100µM); solvent control: DMSO (0.1%).

Setting [3] is: Homo sapiens, HDAC inhibitor alone, 72 h, 384-well.
[4] abbreviates: HDAC inhibitor alone, 72 h, 384-well.

With `CN(C)Cc1c(C(=O)NCCOc2ccc(C(=O)NO)cc2)oc2ccccc12` [abexinostat, 3-[(Dimethylamino)methyl]-N-{2-[4-(hydroxycarbamoyl)phenoxy]ethyl}-1-benzofuran-2-carboxamide], the IC50 (in general, the concentration at which inhibition is half-maximal) with IMR-32 (setting [3]) was determined as 100 nM; in the series with IMR-32 (HDAC inhibitor + APR-246 2 µM), 30.4 nM; with SK-N-BE(2)-C (HDAC inhibitor + APR-246 10 µM), 37.5 nM; in the series on SK-N-BE(2)-C (setting [4]), 172 nM; with SK-N-AS (HDAC inhibitor + APR-246 20 µM), 15.4 nM; in the series with SK-N-AS (setting [3]), 46.3 nM.

Turning to `C/C=C1\NC(=O)[C@H]2CSSCC/C=C/[C@H](CC(=O)N[C@H](C(C)C)C(=O)N2)OC(=O)[C@H](C(C)C)NC1=O` [romidepsin], the IC50 in the series on IMR-32 (setting [3]) amounted to 0.73 nM; in the series on IMR-32 (HDAC inhibitor + APR-246 1 µM), 0.24 nM; with SK-N-BE(2)-C (HDAC inhibitor + APR-246 10 µM), 9.9 nM; in the series on SK-N-BE(2)-C (setting [4]) it was 26.9 nM; with SK-N-AS (HDAC inhibitor + APR-246 20 µM), 1.8 nM; in the series with SK-N-AS (setting [3]) it was 5.7 nM.

Take `Cc1[nH]c2ccccc2c1CCNCc1ccc(/C=C/C(=O)NO)cc1` [panobinostat, (2E)-N-hydroxy-3-[4-({[2-(2-methyl-1H-indol-3-yl)ethyl]amino}methyl)phenyl]acrylamide]: the IC50 in the series on IMR-32 (setting [3]) is 35.6 nM; in the series on IMR-32 (HDAC inhibitor + APR-246 2 µM), 13.9 nM; with SK-N-BE(2)-C (HDAC inhibitor + APR-246 20 µM), 3.1 nM; in the series with SK-N-BE(2)-C (setting [4]) it was 40.2 nM; with SK-N-AS (HDAC inhibitor + APR-246 20 µM) it was 1 nM; in the series with SK-N-AS (setting [3]), 2.2 nM.

Take `COc1cccc2c1C(=O)c1c(O)c3c(c(O)c1C2=O)C[C@@](O)(C(=O)CO)C[C@@H]3O[C@H]1C[C@H](N)[C@H](O)[C@H](C)O1` [doxorubicin]: the “doxorubicin sensitivity (metabolic activity)” value in the series with IMR-32 (IMR-32 (TP53-wt), fixed APR-246 concentration with different doses of doxorubicin) is “increased doxorubicin sensitivity”; with SK-N-BE(2)-C (doxorubicin resistant TP53-mutant SK-B-BE(2)-C, fixed APR-246 concentration with different doses of doxorubicin) it was “increased doxorubicin sensitivity”. In addition, the cell viability entry with SF188 and in the series on SJ-GBM2 was “decreased cell viability” in each case. The “p53 target genes CDKN1A, PUMA and GADD45A expression” value in series [1] is “upregulation”. In addition, the “p53 target gene expression” value in series [2] is “failed to activate p53 target gene expression”.

With `O=C(CCCCCCC(=O)Nc1ccccc1)NO` [vorinostat, N-Hydroxy-N'-phenyloctanediamide], the HSA synergy score in the series with SK-N-AS (72 h co-treatment of vorinostat (0-10 µM) with APR-246 (0, 15, 30, 45 µM), SynergyFinder HSA model) was 12.17. For the same compound, the “Maximum Tolerated Dose (MTD)” value with Zebrafish embryo came to 100 µM.
